Measured values: US5071855A, “Pharmacologically active piperidinylimidazopyridine compounds” (Dompe Farmaceutici SpA, priority 1989, dated 1991)
Where a name gives a salt, the structure may show the parent alone.

Tests used:
[1] = test system: mortality induced by histamine; test: Effect on the mortality induced by histamine; type: in vivo, male albino guinea pigs (Dunkin-Hartley); conditions: Cavia porcellus, po; guinea pig, p.o., 60 minutes before 1.25 mg/kg i.v. histamine dihydrochloride; 50% inhibition of mortality; read-out: Mortality induced by hystamine ED50 p.o.
Procedure: EFFECT ON THE MORTALITY INDUCED BY HISTAMINE
The method described by Romer D. et al. (Med. Welt. 17,791,1966) was followed and the tests were carried out on male albino guinea pigs (Dunkin-Hartley), weighing 350 to 450 g which were kept in cages with a grid floor, on an empty stomach for 24 hours with water ad libitum. The compounds under examination have been orally administered to the animals, dissolved in 0.5% carboxymethylcellulose, 60 minutes before intravenous administration of 1.25 mg/kg of histamine dihydrochloride in saline solution. In the control animals, treated with carboxymethylcellulose, the intravenous administration of histamine dihydrochloride induced a 100% mortality.
It has been evaluated ED50, which corresponds to the amount of the compound able inhibit to 50% the mortality induced by histamine: estimation of ED50 has been made applying the `probit` method (Finney D. J. "Statistical method in biological assay", pg 512,1957).

[2] = test system: mortality induced by compound 48/80; test: Mortality inhibition by compound 48/80; type: in vivo, Sprague Dawley Nos male rats; conditions: ip; rat, i.p., 30 minutes before 2 mg/kg i.v. compound 48/80; observed 4 hours
Procedure: MORTALITY INHIBITION BY COMPOUND 48/80
For evaluating the protection of the mortality induced by compound 48/80 administration the method described by C. J. E. Niemegeers et al. (Arch. Int. Pharmacodyn, 234,164,1978) was followed.
Sprague Dawley Nos male rats (Nossan, Correzzana, Milano) weighing 140 to 150 g, divided into groups of 10 animals each, on an empty stomach for 24 hours with water "ad libitum", were kept in cages with a grid floor, and treated intravenously with 2 mg/kg of compound 48/80 (1 ml/rat).
The animals were kept under observation for 4 hours taking note of their mortality. The results were expressed as the number of animals dead with respect to the number of treated animals. Compounds under examination or the carrier were administered 30 minutes before administration of compound 48/80 by intraperitoneal route, dissolved in H2 O (5 ml/kg) or suspended in 0.5% carboxymethylcellulose. The experimental data were submitted to the variance analysis and to subsequent multiple comparisons according to Dunnet (D. J. Finney, in "Statistical Methods in Biological assay", Ed. L. Griffin and Co. Ltd., pag. 152,1957, Edition Ames Iowa, 1971).

[3] = Evaluation of the lethal dose50 (LD50), acute toxicity; conditions: in vivo, ip; mouse, 14 days; probit method
Procedure: EVALUATION OF THE LETHAL DOSE50 (LD50)
Swiss Nos (Nossau, Correzzana, Milano) mice, weighing 18 to 20 g each, on an empty stomach for 18 hours with water "ad libitum" and kept in cages with grid floor, were used. The animals, divided into groups of 10 animals each, (5M+5F) were treated intraperitoneally (10 ml/kg) with the compounds under examination dissolved in water or suspended in 0.5% carboxymethyl-cellulose. The animals were kept in the cages and the mortality occurred within the following 6 hours was noted down. At the expiring of the 6 hours the animals were allowed to eat up to the end of the experimentation which lasted 14 days. During this period all the toxic symptoms and the mortality occuring were noted.
The animals which died during the test period and those which were sacrificed at the end of the same, underwent autopsy for a macroscopic examination of their main organs. The experimental data were statistically compared with the X^2 method and LD50 was extrapolated by the `probit` method.

| SMILES | ED50 [1] | ED50 [2] | LD50 at 336 h [3] |
| --- | --- | --- | --- |
| CCOCCn1c(C2CCN(C)CC2)nc2cccnc21 [Example 2, 3-(2-Ethoxyethyl)-2-(1-methylpiperidin-4-yl)-3H-imidazo [4,5-b] pyridine 1.5 fumarate] | 0.042 mg/kg | 0.34 mg/kg | 500 mg/kg |
| CCOCCn1c(C2CCCN(C)C2)nc2cccnc21.O=C(O)/C=C/C(=O)O.O=C(O)/C=C/C(=O)O (stereo not drawn) [Example 5, 3-(2-Ethoxyethyl)-2-(1-methylpiperidin-3-yl)-3H-imidazo [4,5-b] pyridine difumarate] | 0.05 mg/kg | 0.59 mg/kg | < 100 mg/kg |
| CN1CCCC(c2nc3cccnc3n2Cc2ccccc2)C1 (stereo not drawn) [Example 8, 3-Benzyl-2-(1-methylpiperidin-3-yl)-3H-imidazo [4,5-b] pyridine] | 0.078 mg/kg |  | > 100 mg/kg |
| CC(C)(C)c1ccc(C(O)CCCN2CCC(C(O)(c3ccccc3)c3ccccc3)CC2)cc1 (stereo not drawn) [Terfenadine, reference compound] |  | 1.99 mg/kg |  |
